#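 Method: 48-hour compound exposure of cells in 96-well plates, five concentrations, linear interpolation of endpoints. GI50 is the concentration that inhibits growth by half.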 Calls of active or inactive are those of the source. Rule as the data show it: active = GI50 up to about 1.1 µM and inactive = higher.
# Assays:
# Assay in all cases: NCI anticancer screen, dose series, 48 h
# A549 = system: A549
# OVCAR-5 = system: OVCAR-5
# U-251 = system: U-251
# KM-20L2 = system: KM-20L2
# OVCAR-4 = system: OVCAR-4
# DU-145 = system: DU-145
# Malme-3M = system: Malme-3M
# OVCAR-8 = system: OVCAR-8
# PC-3 = system: PC-3
# NCI-H226 = system: NCI-H226
# SF-539 = system: SF-539
# DLD-1 = system: DLD-1
# SK-MEL-28 = system: SK-MEL-28
# TK-10 = system: TK-10
# Hs-578T = system: Hs-578T
# M19-MEL = system: M19-MEL
# HOP-92 = system: HOP-92
# MDA-N = system: MDA-N
# SK-MEL-5 = system: SK-MEL-5
# SN12C = system: SN12C
# UACC-257 = system: UACC-257
# ACHN = system: ACHN
# MOLT-4 = system: MOLT-4
# HCT-15 = system: HCT-15
# SF-268 = system: SF-268
# SNB-78 = system: SNB-78
# MDA-MB-231 = system: MDA-MB-231
# HT-29 = system: HT-29
# RXF 393 = system: RXF 393
# SK-OV-3 = system: SK-OV-3
# EKVX = system: EKVX
# COLO 205 = system: COLO 205
# LOX IMVI = system: LOX IMVI
# IGROV-1 = system: IGROV-1
# RPMI-8226 = system: RPMI-8226
# NCI-H522 = system: NCI-H522
# NCI/ADR-RES = system: NCI/ADR-RES
# 786-0 = system: 786-0
# K562 = system: K562
# M14 = system: M14
# SNB-19 = system: SNB-19
# SR = system: SR
# SW-620 = system: SW-620
# NCI-H460 = system: NCI-H460
# UACC-62 = system: UACC-62
# BT-549 = system: BT-549
# DMS-114 = system: DMS-114
# NCI-H23 = system: NCI-H23
# CAKI-1 = system: CAKI-1
# HOP-62 = system: HOP-62
# SNB-75 = system: SNB-75
# KM12 = system: KM12
# XF498 = system: XF498
# SK-MEL-2 = system: SK-MEL-2
# A498 = system: A498
# T47D = system: T47D
# HCC 2998 = system: HCC 2998
# UO-31 = system: UO-31
# DMS-273 = system: DMS-273
# MCF7 = system: MCF7
# MDA-MB-435 = system: MDA-MB-435
# HCT-116 = system: HCT-116
# HL-60 = system: HL-60
# HOP-18 = system: HOP-18
# OVCAR-3 = system: OVCAR-3
# CCRF-CEM = system: CCRF-CEM
# SF-295 = system: SF-295
structure (smiles),measurement,setting,value
Nc1cc2[nH]cnc2c(=O)[nH]1 [DEZAGUANINE],GI50,A549,24.5 µM (inactive)
same,GI50,OVCAR-5,45.5 µM (inactive)
same,GI50,U-251,30.5 µM (inactive)
same,GI50,KM-20L2,33.7 µM (inactive)
same,GI50,OVCAR-4,20.2 µM (inactive)
same,GI50,DU-145,5.43 µM (inactive)
same,GI50,Malme-3M,47.6 µM (inactive)
same,GI50,OVCAR-8,40.2 µM (inactive)
same,GI50,PC-3,9.29 µM (inactive)
same,GI50,NCI-H226,77.1 µM (inactive)
same,GI50,SF-539,16 µM (inactive)
same,GI50,DLD-1,13.9 µM (inactive)
same,GI50,SK-MEL-28,40.6 µM (inactive)
same,GI50,TK-10,13.9 µM (inactive)
same,GI50,Hs-578T,> 196 µM (inactive)
same,GI50,M19-MEL,181 µM (inactive)
same,GI50,HOP-92,77.8 µM (inactive)
same,GI50,MDA-N,15.5 µM (inactive)
same,GI50,SK-MEL-5,63.7 µM (inactive)
same,GI50,SN12C,14.6 µM (inactive)
same,GI50,UACC-257,109 µM (inactive)
same,GI50,ACHN,8.87 µM (inactive)
same,GI50,MOLT-4,6.28 µM (inactive)
same,GI50,HCT-15,19.3 µM
same,GI50,SF-268,15 µM (inactive)
same,GI50,SNB-78,> 300 µM (inactive)
same,GI50,MDA-MB-231,49.9 µM (inactive)
same,GI50,HT-29,21.5 µM (inactive)
same,GI50,RXF 393,41.7 µM (inactive)
same,GI50,SK-OV-3,5.12 µM (inactive)
same,GI50,EKVX,56.2 µM (inactive)
same,GI50,COLO 205,21.9 µM (inactive)
same,GI50,LOX IMVI,10.5 µM (inactive)
same,GI50,IGROV-1,23.1 µM (inactive)
same,GI50,RPMI-8226,19.3 µM (inactive)
same,GI50,NCI-H522,14.8 µM (inactive)
same,GI50,NCI/ADR-RES,50.9 µM (inactive)
same,GI50,786-0,19.4 µM (inactive)
same,GI50,K562,12.3 µM (inactive)
same,GI50,M14,45.6 µM (inactive)
same,GI50,SNB-19,> 264 µM (inactive)
same,GI50,SR,9.1 µM (inactive)
same,GI50,SW-620,17.7 µM (inactive)
same,GI50,NCI-H460,10.4 µM (inactive)
same,GI50,UACC-62,12.9 µM (inactive)
same,GI50,BT-549,> 123 µM (inactive)
same,GI50,DMS-114,97.7 µM (inactive)
same,GI50,NCI-H23,31.6 µM (inactive)
same,GI50,CAKI-1,11 µM (inactive)
same,GI50,HOP-62,18.3 µM (inactive)
same,GI50,SNB-75,90.8 µM (inactive)
same,GI50,KM12,51.6 µM (inactive)
same,GI50,XF498,5.42 µM (inactive)
same,GI50,SK-MEL-2,5.96 µM (inactive)
same,GI50,A498,63.5 µM (inactive)
same,GI50,T47D,89.1 µM (inactive)
same,GI50,HCC 2998,82.8 µM (inactive)
same,GI50,UO-31,32.3 µM (inactive)
same,GI50,DMS-273,8.26 µM (inactive)
same,GI50,MCF7,21.9 µM (inactive)
same,GI50,MDA-MB-435,14.3 µM (inactive)
same,GI50,HCT-116,16.6 µM (inactive)
same,GI50,HL-60,6.21 µM (inactive)
same,GI50,HOP-18,> 121 µM (inactive)
same,GI50,OVCAR-3,11 µM (inactive)
same,GI50,CCRF-CEM,7.93 µM (inactive)
same,GI50,SF-295,> 219 µM (inactive)
CC(=O)Nc1ccc(C(=O)N2N=C(C)/C(=C/c3ccccc3O)C2=O)cc1,GI50,A549,> 100 µM (inactive)
same,GI50,OVCAR-5,> 100 µM (inactive)
same,GI50,OVCAR-4,> 100 µM (inactive)
same,GI50,Malme-3M,> 100 µM (inactive)
same,GI50,OVCAR-8,> 100 µM (inactive)
same,GI50,NCI-H226,> 100 µM (inactive)
same,GI50,SF-539,> 100 µM (inactive)
same,GI50,DLD-1,> 100 µM (inactive)
same,GI50,SK-MEL-28,> 100 µM (inactive)
same,GI50,TK-10,> 100 µM (inactive)
same,GI50,M19-MEL,> 100 µM (inactive)
same,GI50,SK-MEL-5,> 100 µM (inactive)
same,GI50,SN12C,> 100 µM (inactive)
same,GI50,UACC-257,> 100 µM (inactive)
same,GI50,ACHN,> 100 µM (inactive)
same,GI50,MOLT-4,> 100 µM (inactive)
same,GI50,HCT-15,> 100 µM
same,GI50,SF-268,> 100 µM (inactive)
same,GI50,SNB-78,> 100 µM (inactive)
same,GI50,HT-29,> 100 µM (inactive)
same,GI50,EKVX,> 100 µM (inactive)
same,GI50,COLO 205,> 100 µM (inactive)
same,GI50,LOX IMVI,> 100 µM (inactive)
same,GI50,RPMI-8226,> 100 µM (inactive)
same,GI50,NCI-H522,> 100 µM (inactive)
same,GI50,786-0,> 100 µM (inactive)
same,GI50,K562,> 100 µM (inactive)
same,GI50,M14,> 100 µM (inactive)
same,GI50,SNB-19,> 100 µM (inactive)
same,GI50,SR,> 100 µM (inactive)
same,GI50,SW-620,> 100 µM (inactive)
same,GI50,NCI-H460,> 100 µM (inactive)
same,GI50,DMS-114,> 100 µM (inactive)
same,GI50,NCI-H23,> 100 µM (inactive)
same,GI50,CAKI-1,> 100 µM (inactive)
same,GI50,HOP-62,> 100 µM (inactive)
same,GI50,SNB-75,> 100 µM (inactive)
same,GI50,KM12,> 100 µM (inactive)
same,GI50,XF498,> 100 µM (inactive)
same,GI50,SK-MEL-2,> 100 µM (inactive)
same,GI50,HCC 2998,> 100 µM (inactive)
same,GI50,UO-31,> 100 µM (inactive)
same,GI50,DMS-273,> 100 µM (inactive)
same,GI50,HCT-116,> 100 µM (inactive)
same,GI50,HL-60,> 100 µM (inactive)
same,GI50,HOP-18,49.3 µM (inactive)
same,GI50,OVCAR-3,> 100 µM (inactive)
same,GI50,CCRF-CEM,> 100 µM (inactive)
same,GI50,SF-295,> 100 µM (inactive)
